Consider 68 sequences from the supplement of paper PMC11208160.
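Also: IS621 bridge recombinase in Escherichia coli cells against a fixed T5 target plasmid.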

The series in a line: recombinant UMI read abundance after kanamycin selection (control-corrected) (log10(CPM+1)); higher = more efficient recombination; extreme values may be limits of the assay; sequences stand for … in AGTGCAGAGAAAATCGGCCAGTTTTCTCTGCCTGCAGTCCGCATGCCGTGGGACCCCTTGGGTTCTAACCTGTTGCCTAGATTTATGCAGCGGACTGCCTTTCTCCCAAAGTGATAAACCGG…AGGTTGGTTTCACT; site = the 11-nt donor. The method, boiled down:
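Two replicates each of selected and unselected plating were used in this pooled Escherichia coli screen of donor and donor-binding-loop pairs for the IS621 bridge recombinase. Selection was with IPTG (0.07 mM) and kanamycin. Counts of recombinant UMIs, amplified across the donor–target junction, were converted to CPM, averaged, scaled by control-derived factors and reported as log10(CPM+1).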
Regarding “GACTAACCATGGACCGGTTTTCCCGGTAATCCGTATTTGGT (site GACAAACCTAC)”, the “recombinant UMI read abundance (log10)” value was 0.0462.

For “GACTAACCATGGACCGGTTTTCCCGGTAATCCGTATTTGGT (site GACCAACCTAC)”, the “recombinant UMI read abundance (log10)” value was found to be 0.00701.

Consider “GACTAACCATGGACCGGTTTTCCCGGTAATCCGTATTTGGT (site GACGAACCTAC)”, for which the “recombinant UMI read abundance (log10)” value was found to be 0.

For “GACTAACCATGGACCGGTTTTCCCGGTAATCCGTATTTGGT (site GACTAACCTAC)”, the “recombinant UMI read abundance (log10)” value worked out at 0.

Consider “GACTATTCATGGACCGGTTTTCCCGGTAATCCGTATTTGTA (site GACTATTCTTA)”, for which the “recombinant UMI read abundance (log10)” value amounted to 1.34.

Turning to “GACTCCTCATGGACCGGTTTTCCCGGTAATCCGTATTTGAA (site GACTCCTCTTT)”, the “recombinant UMI read abundance (log10)” value worked out at 1.75.

Turning to “GACTGATCATGGACCGGTTTTCCCGGTAATCCGTATTTGGC (site GACTGATCTGC)”, the “recombinant UMI read abundance (log10)” value worked out at 2.46.

As for “GACTGGACATGGACCGGTTTTCCCGGTAATCCGTATTTGAC (site GAATGGACTGT)”, the “recombinant UMI read abundance (log10)” value came out at 0.

Consider “GACTGGACATGGACCGGTTTTCCCGGTAATCCGTATTTGAC (site GACTGGACTGT)”, for which the “recombinant UMI read abundance (log10)” value came to 1.89.

Regarding “GACTGGACATGGACCGGTTTTCCCGGTAATCCGTATTTGAC (site GAGTGGACTGT)”, the “recombinant UMI read abundance (log10)” value worked out at 0.438.

For the sequence “GACTGGACATGGACCGGTTTTCCCGGTAATCCGTATTTGAC (site GATTGGACTGT)”, the “recombinant UMI read abundance (log10)” value was determined as 0.

Regarding “GACTGGCCATGGACCGGTTTTCCCGGTAATCCGTATTTGCA (site GAATGGCCTTG)”, the “recombinant UMI read abundance (log10)” value stood at 0.

Consider “GACTGGCCATGGACCGGTTTTCCCGGTAATCCGTATTTGCA (site GACTGGCCTTG)”, for which the “recombinant UMI read abundance (log10)” value turned out to be 0.

For “GACTGGCCATGGACCGGTTTTCCCGGTAATCCGTATTTGCA (site GAGTGGCCTTG)”, the “recombinant UMI read abundance (log10)” value worked out at 0.

As to “GACTGGCCATGGACCGGTTTTCCCGGTAATCCGTATTTGCA (site GATTGGCCTTG)”, the “recombinant UMI read abundance (log10)” value is 0.0169.

For the sequence “GAGAAAACATGGACCGGTTTTCCCGGTAATCCGTATTTGCT (site GAGAAAACTAG)”, the “recombinant UMI read abundance (log10)” value came to 1.16.

As for “GAGAAAACATGGACCGGTTTTCCCGGTAATCCGTATTTGCT (site GCGAAAACTAG)”, the “recombinant UMI read abundance (log10)” value stood at 0.0152.

With “GAGAAAACATGGACCGGTTTTCCCGGTAATCCGTATTTGCT (site GGGAAAACTAG)”, the “recombinant UMI read abundance (log10)” value worked out at 0.

Consider “GAGAAAACATGGACCGGTTTTCCCGGTAATCCGTATTTGCT (site GTGAAAACTAG)”, for which the “recombinant UMI read abundance (log10)” value came to 0.

As for “GAGAAATCATGGACCGGTTTTCCCGGTAATCCGTATTTGCG (site GAGAAATCTCG)”, the “recombinant UMI read abundance (log10)” value is 0.

“GAGAACCCATGGACCGGTTTTCCCGGTAATCCGTATTTGGA (site GAGAACCCTTC)”: the “recombinant UMI read abundance (log10)” value came to 0.

As to “GAGAAGACATGGACCGGTTTTCCCGGTAATCCGTATTTGAA (site GAGAAGACTTT)”, the “recombinant UMI read abundance (log10)” value stood at 1.82.

Consider “GAGAAGCCATGGACCGGTTTTCCCGGTAATCCGTATTTGTC (site GAGAAGCCTGA)”, for which the “recombinant UMI read abundance (log10)” value is 0.

With “GAGAATACATGGACCGGTTTTCCCGGTAATCCGTATTTGCA (site AAGAATACTTG)”, the “recombinant UMI read abundance (log10)” value turned out to be 0.

On to “GAGAATACATGGACCGGTTTTCCCGGTAATCCGTATTTGCA (site CAGAATACTTG)”, for which the “recombinant UMI read abundance (log10)” value was 0.0136.

Regarding “GAGAATACATGGACCGGTTTTCCCGGTAATCCGTATTTGCA (site GAGAATACTTG)”, the “recombinant UMI read abundance (log10)” value is 2.23.

As for “GAGAATACATGGACCGGTTTTCCCGGTAATCCGTATTTGCA (site TAGAATACTTG)”, the “recombinant UMI read abundance (log10)” value came out at 0.944.

For “GAGACGCCATGGACCGGTTTTCCCGGTAATCCGTATTTGCC (site GAGACGCCTGG)”, the “recombinant UMI read abundance (log10)” value was 0.

As to “GAGACGGCATGGACCGGTTTTCCCGGTAATCCGTATTTGAG (site GAGACGGCTCT)”, the “recombinant UMI read abundance (log10)” value turned out to be 0.892.

“GAGACTCCATGGACCGGTTTTCCCGGTAATCCGTATTTGTA (site GAGACTCCTTA)”: the “recombinant UMI read abundance (log10)” value was 0.807.

With “GAGCACACATGGACCGGTTTTCCCGGTAATCCGTATTTGGA (site GAGCACACTTC)”, the “recombinant UMI read abundance (log10)” value amounted to 0.594.

With “GAGCCTTCATGGACCGGTTTTCCCGGTAATCCGTATTTGGT (site AAGCCTTCTAC)”, the “recombinant UMI read abundance (log10)” value came out at 0.678.

With “GAGCCTTCATGGACCGGTTTTCCCGGTAATCCGTATTTGGT (site CAGCCTTCTAC)”, the “recombinant UMI read abundance (log10)” value came to 0.79.

With “GAGCCTTCATGGACCGGTTTTCCCGGTAATCCGTATTTGGT (site GAGCCTTCTAC)”, the “recombinant UMI read abundance (log10)” value amounted to 0.859.

As to “GAGCCTTCATGGACCGGTTTTCCCGGTAATCCGTATTTGGT (site TAGCCTTCTAC)”, the “recombinant UMI read abundance (log10)” value was determined as 0.0029.

With “GAGCGAGCATGGACCGGTTTTCCCGGTAATCCGTATTTGTA (site GAGCGAGCTTA)”, the “recombinant UMI read abundance (log10)” value was found to be 2.57.

For “GAGCTCACATGGACCGGTTTTCCCGGTAATCCGTATTTGAC (site GAGCTCACTAT)”, the “recombinant UMI read abundance (log10)” value was found to be 1.

Turning to “GAGCTCACATGGACCGGTTTTCCCGGTAATCCGTATTTGAC (site GAGCTCACTCT)”, the “recombinant UMI read abundance (log10)” value amounted to 0.476.

As for “GAGCTCACATGGACCGGTTTTCCCGGTAATCCGTATTTGAC (site GAGCTCACTGT)”, the “recombinant UMI read abundance (log10)” value was determined as 2.53.

With “GAGCTCACATGGACCGGTTTTCCCGGTAATCCGTATTTGAC (site GAGCTCACTTT)”, the “recombinant UMI read abundance (log10)” value was 0.00766.

On to “GAGCTCACATGGACCGGTTTTCCCGGTAATCCGTATTTGTT (site GAGCTCACTAA)”, for which the “recombinant UMI read abundance (log10)” value worked out at 1.53.

As to “GAGCTCACATGGACCGGTTTTCCCGGTAATCCGTATTTGTT (site GAGCTCACTAC)”, the “recombinant UMI read abundance (log10)” value was 0.0125.

For the sequence “GAGCTCACATGGACCGGTTTTCCCGGTAATCCGTATTTGTT (site GAGCTCACTAG)”, the “recombinant UMI read abundance (log10)” value was found to be 2.34.

Regarding “GAGCTCACATGGACCGGTTTTCCCGGTAATCCGTATTTGTT (site GAGCTCACTAT)”, the “recombinant UMI read abundance (log10)” value came out at 1.08.

For “GAGGATGCATGGACCGGTTTTCCCGGTAATCCGTATTTGTA (site GAGGATGCTTA)”, the “recombinant UMI read abundance (log10)” value was determined as 2.8.

In the case of “GAGGCTACATGGACCGGTTTTCCCGGTAATCCGTATTTGTG (site GAGGCTACTCA)”, the “recombinant UMI read abundance (log10)” value was determined as 1.4.

On to “GAGGGTACATGGACCGGTTTTCCCGGTAATCCGTATTTGGC (site GAGGGTACTGC)”, for which the “recombinant UMI read abundance (log10)” value is 2.1.

Regarding “GAGGTACCATGGACCGGTTTTCCCGGTAATCCGTATTTGTA (site GAGGTACCTTA)”, the “recombinant UMI read abundance (log10)” value turned out to be 0.00435.

For the sequence “GAGGTATCATGGACCGGTTTTCCCGGTAATCCGTATTTGCT (site GAGGTATCTAG)”, the “recombinant UMI read abundance (log10)” value came to 2.57.

Consider “GAGGTCACATGGACCGGTTTTCCCGGTAATCCGTATTTGAT (site GAGATCACTAT)”, for which the “recombinant UMI read abundance (log10)” value is 1.36.

“GAGGTCACATGGACCGGTTTTCCCGGTAATCCGTATTTGAT (site GAGCTCACTAT)”: the “recombinant UMI read abundance (log10)” value came out at 0.00889.

Turning to “GAGGTCACATGGACCGGTTTTCCCGGTAATCCGTATTTGAT (site GAGGTCACTAT)”, the “recombinant UMI read abundance (log10)” value was 1.35.

As to “GAGGTCACATGGACCGGTTTTCCCGGTAATCCGTATTTGAT (site GAGTTCACTAT)”, the “recombinant UMI read abundance (log10)” value is 0.

As to “GAGTATCCATGGACCGGTTTTCCCGGTAATCCGTATTTGCT (site GAATATCCTAG)”, the “recombinant UMI read abundance (log10)” value turned out to be 0.

“GAGTATCCATGGACCGGTTTTCCCGGTAATCCGTATTTGCT (site GACTATCCTAG)”: the “recombinant UMI read abundance (log10)” value came out at 0.506.

Turning to “GAGTATCCATGGACCGGTTTTCCCGGTAATCCGTATTTGCT (site GAGTATCCTAG)”, the “recombinant UMI read abundance (log10)” value is 0.75.

In the case of “GAGTATCCATGGACCGGTTTTCCCGGTAATCCGTATTTGCT (site GATTATCCTAG)”, the “recombinant UMI read abundance (log10)” value came out at 0.

Regarding “GAGTCCTCATGGACCGGTTTTCCCGGTAATCCGTATTTGCC (site GAGTCCTCTGG)”, the “recombinant UMI read abundance (log10)” value stood at 0.

As for “GAGTCGACATGGACCGGTTTTCCCGGTAATCCGTATTTGGG (site AAGTCGACTCC)”, the “recombinant UMI read abundance (log10)” value stood at 0.257.

For the sequence “GAGTCGACATGGACCGGTTTTCCCGGTAATCCGTATTTGGG (site CAGTCGACTCC)”, the “recombinant UMI read abundance (log10)” value came to 0.0177.

With “GAGTCGACATGGACCGGTTTTCCCGGTAATCCGTATTTGGG (site GAGTCGACTCC)”, the “recombinant UMI read abundance (log10)” value came out at 0.044.

As for “GAGTCGACATGGACCGGTTTTCCCGGTAATCCGTATTTGGG (site TAGTCGACTCC)”, the “recombinant UMI read abundance (log10)” value was found to be 0.0071.

In the case of “GAGTGCCCATGGACCGGTTTTCCCGGTAATCCGTATTTGCC (site GAGTGCCCTGG)”, the “recombinant UMI read abundance (log10)” value was 0.

On to “GAGTTTCCATGGACCGGTTTTCCCGGTAATCCGTATTTGCG (site GAGTTTCCTCG)”, for which the “recombinant UMI read abundance (log10)” value was 0.572.

For the sequence “GATAATCCATGGACCGGTTTTCCCGGTAATCCGTATTTGCT (site GATAATCCTAG)”, the “recombinant UMI read abundance (log10)” value was 0.

For “GATAATCCATGGACCGGTTTTCCCGGTAATCCGTATTTGCT (site GATCATCCTAG)”, the “recombinant UMI read abundance (log10)” value is 0.

Consider “GATAATCCATGGACCGGTTTTCCCGGTAATCCGTATTTGCT (site GATGATCCTAG)”, for which the “recombinant UMI read abundance (log10)” value is 0.

With “GATAATCCATGGACCGGTTTTCCCGGTAATCCGTATTTGCT (site GATTATCCTAG)”, the “recombinant UMI read abundance (log10)” value was 0.
